Values quoted from earlier work, collected in patent US20190150439A1, “SOLUBLE LIQUID FORMULATIONS OF QUINCLORAC AMMONIUM SALTS” (BASF SE, priority 2012, published 2019).

Settings: pH 7 at 20° C.

Q: Which solubility in water does the source give for `O=C(O)c1c(Cl)ccc2cc(Cl)cnc12` [Quinclorac, 3,7-dichloro-8-quinolinecarboxylic acid] here?
A: The solubility in water was 0.065 mg/kg.
